The record followed here is patent publication US12234238B2, “Antimicrobial compounds and methods of making and using the same” (BIOVERSYS AG, priority 2017, dated 2025).

A word on the MIC: it is the least concentration at which growth counts as inhibited.

The subject of experiment [1] is Staphylococcus aureus (S. aureus) 11540 strain. Put plainly: standard microdilution assay to determine minimum inhibitory concentrations (MICs), S. aureus. It is filed as cell-based. How it is done: (§1) The in vitro activity of the compounds of the present disclosure can be determined. Antimicrobial testing is typically performed to determine the minimum inhibitory concentration (MIC). Minimum inhibitory concentrations (MICs) are determined by the microdilution method in a final volume of 100 μl according to protocols outlined by The Clinical and Laboratory Standards Institute (CLSI). Performance standards for reference strains are assessed within the same experimental design to maintain quality control. See, for example, Clinical Laboratory Standards Institute: Methods for dilution antimicrobial susceptibility tests for bacteria that grow aerobically M7-A8. Approved Standard-Eighth Edition. Wayne, PA: CLSI; December 2008: and Clinical Laboratory Standards Institute: Performance Standards for Antimicrobial Susceptibility Testing M100-S20; Approved Standard-Twentieth Edition. Wayne, PA: CLSI; June 2010. The compounds of the present disclosure were tested for antimicrobial activity. The Compounds 1-122 were run against Eschericia coli (E. coli) strain ATCC25922 and against Staphylococcus aureus (S. aureus) 11540 strain using a standard microdilution assay to determine minimum inhibitory concentrations (MICs). […] It will be recognized by one skilled in the art that the compounds can be assessed against other bacterial organisms and that the presentation of data for activity against Eschericia coli and Staphylococcus aureus are illustrative and in no way is intended to limit the scope of the present disclosure. The compounds of the present disclosure can be assayed against a range of other microorganisms depending upon the performance activity desired to be gathered. Furthermore, the “+” and “−” representation and the selection of a cutoff value of 16 micrograms/mL is also illustrative and in no way is intended to limit the scope of the present disclosure.
In general terms: Broth dilution looks for growth in wells or tubes with falling amounts of substance.

The test system of experiment [2] is Eschericia coli (E. coli) strain ATCC25922. In words: standard microdilution assay to determine minimum inhibitory concentrations (MICs), E. coli. Type of experiment: cell-based. Particulars: Escherichia coli. How it is done:
as §1

For the compound `C[C@H](N)CCCc1cc(-c2cc3cn(-c4ccc([C@@H]5CCC[C@@H](CCSC(=N)N)N5)cc4)c(=O)nc3[nH]2)cc2c1CCCC2` [Compound 93], the minimal inhibitory concentration (MIC) in experiment [1] and in experiment [2] was not above 16 µg/mL in each case.
`CSC(=N)NCC[C@@H]1CCC[C@@H](c2ccc(-n3cc4cc(-c5cc(CCC[C@H](C)N)cc(Cl)c5F)[nH]c4nc3=O)cc2F)N1` [Compound 121]: the MIC in experiment [1] and in experiment [2] was not above 16 µg/mL each time.
For the compound `C[C@H](N)CCCc1cc(Cl)c(F)c(-c2cc3cn(-c4ccc([C@@H]5CC=CCN5CCCSC(=N)N)cc4)c(=O)nc3[nH]2)c1` [Compound 14], the MIC in experiment [1] and in experiment [2] was not above 16 µg/mL each time.
For the compound `C=CCSC(=N)NCC[C@@H]1CCC[C@@H](c2ccc(-n3cc4cc(-c5cc(CCC[C@H](C)N)cc(Cl)c5F)[nH]c4nc3=O)cc2)N1` [Compound 122], the MIC in experiment [1] and in experiment [2] was not above 16 µg/mL each time.
Turning to `CO[C@@H]1CC(c2cc3cn(-c4ccc([C@@H]5CCC[C@@H](CCSC(=N)N)N5)cc4)c(=O)nc3[nH]2)N(CCC[C@H](C)N)C1` (stereo partly shown) [Compound 57], the MIC in experiment [1] and in experiment [2] was not above 16 µg/mL throughout.
Turning to `C=C[C@H](N)CCCc1cc(Cl)c(F)c(-c2cc3cn(-c4ccc([C@@H]5CCC[C@@H](CCSC(=N)N)N5C)cc4)c(=O)nc3[nH]2)c1` [Compound 50], the MIC in experiment [1] and in experiment [2] was not above 16 µg/mL throughout.
`C[C@H](N)CCCc1cc(Cl)c(F)c(-c2cc3cn(-c4ccc([C@@H]5CCC[C@@H](CCSC(=N)N)N5CCCO)cc4)c(=O)nc3[nH]2)c1` [Compound 6]: the MIC in experiment [1] and in experiment [2] was not above 16 µg/mL in each case.
For `N=C(N)SCCCN1CC=CC[C@H]1c1ccc(-n2cc3cc(-c4cc(CCC[C@@H](N)C5CC5)cc(Cl)c4F)[nH]c3nc2=O)cc1` [Compound 15], the minimal inhibitory concentration (MIC) in experiment [1] and in experiment [2] was not above 16 µg/mL throughout.
Turning to `CN[C@H]1CNC(c2cc3cn(-c4ccc([C@@H]5CCC[C@@H](CCSC(=N)N)N5)cc4)c(=O)nc3[nH]2)C1` (stereo partly shown) [Compound 83], the MIC in experiment [1] and in experiment [2] was not above 16 µg/mL in each case.
`C[C@@H](N)CCCN1C[C@@H](O)CC1c1cc2cn(-c3ccc([C@@H]4CCC[C@@H](CCSC(=N)N)N4)cc3)c(=O)nc2[nH]1` (stereo partly shown) [Compound 64]: the MIC in experiment [1] and in experiment [2] was not above 16 µg/mL each time.
With `C[C@H](N)CCCc1cc(Cl)c(F)c(-c2cc3cn(-c4ccc([C@@H]5C[C@@H](CCSC(=N)N)CN5)cc4)c(=O)nc3[nH]2)c1` [Compound 116], the minimal inhibitory concentration (MIC) in experiment [1] and in experiment [2] was not above 16 µg/mL in each case.
Regarding `C=C[C@H](N)CCCc1cc(Cl)c(F)c(-c2cc3cn(-c4ccc([C@@H]5CCC[C@@H](CCSC(=N)N)N5)c(F)c4)c(=O)nc3[nH]2)c1` [Compound 36], the MIC in experiment [1] and in experiment [2] was not above 16 µg/mL in each case.
For the compound `C[C@@H](CO)CN1[C@H](CCSC(=N)N)CCC[C@H]1c1ccc(-n2cc3cc(-c4cc(CCC[C@H](C)N)cc(Cl)c4F)[nH]c3nc2=O)cc1` [Compound 101], the MIC in experiment [1] and in experiment [2] was not above 16 µg/mL throughout.
Take `C[C@H](N)CCCc1cc(Cl)c(F)c(-c2cc3cn(-c4ccc([C@@H]5CCC[C@@H](CCSC6=NCCN6)N5)cc4)c(=O)nc3[nH]2)c1` [Compound 2]: the minimal inhibitory concentration (MIC) in experiment [1] and in experiment [2] was not above 16 µg/mL each time.
For `C[C@H](N)CCCc1cc(Cl)c(F)c(-c2cc3cn(-c4ccc([C@@H]5CCC[C@@H](CCSC(=N)N(C)C)N5)cc4)c(=O)nc3[nH]2)c1` [Compound 44], the MIC in experiment [1] and in experiment [2] was not above 16 µg/mL in each case.
As for `C[C@H](N)CCCN1CCCC1c1cc2cn(-c3ccc([C@@H]4CCC[C@@H](CCSC(=N)N)N4)cc3)c(=O)nc2[nH]1` (stereo partly shown) [Compound 31], the MIC in experiment [1] and in experiment [2] was not above 16 µg/mL throughout.
For the compound `C=C[C@H](N)CCCc1cc(Cl)c(F)c(-c2cc3cn(-c4ccc([C@@H]5CCC[C@@H](CCSC(=N)N)N5)cc4)c(=O)nc3[nH]2)c1` [Compound 45], the MIC in experiment [1] and in experiment [2] was not above 16 µg/mL in each case.
